Assay results from PubChem BioAssay AID248 (DTP/NCI, 2004).
Values joined by “and” are separate entries in the source; they are usually repeats but may differ in a detail not shown here. Equal entries are not always repeated. Inconclusive results and toxic doses are left out. Cut-off read from the data, not from the text of the source: active = T/C of 150% or more; inactive = T/C below 125%.

System: L1210 leukemia ip in BDF1 mice, survival T/C
Assay: NCI In Vivo Anticancer Drug Screen. Data for tumor model L1210 Leukemia (intraperitoneal) in B6D2F1 (BDF1) mice
Conditions: endpoint: mean survival time, higher = longer survival
Method in brief: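 Tumor cells were implanted, animals were treated, and survival was followed. The result divides the treated measurement by the vehicle-control measurement.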

[1] = dose: 100.0 mg/kg/injection, schedule: Q01DX009 (ip), vehicle: saline
[2] = dose: 100.0 mg/kg/injection, schedule: Q04DX002 (ip), vehicle: saline
[3] = dose: 200.0 mg/kg/injection, schedule: Q04DX002 (ip), vehicle: saline
[4] = dose: 100.0 mg/kg/injection, schedule: Q04DX003 (ip), vehicle: Klucel (hydroxypropylcellulose) (HPC)
[5] = dose: 200.0 mg/kg/injection, schedule: Q04DX003 (ip), vehicle: Klucel (hydroxypropylcellulose) (HPC)
[6] = dose: 100.0 mg/kg/injection, schedule: Q01DX009 (ip), vehicle: saline with Tween-80
[7] = dose: 100.0 mg/kg/injection, schedule: Q04DX003 (ip), vehicle: saline with Tween-80
[8] = dose: 200.0 mg/kg/injection, schedule: Q01DX009 (ip), vehicle: saline with Tween-80
[9] = dose: 200.0 mg/kg/injection, schedule: Q04DX003 (ip), vehicle: saline with Tween-80
[10] = dose: 400.0 mg/kg/injection, schedule: Q01DX009 (ip), vehicle: saline with Tween-80
[11] = dose: 400.0 mg/kg/injection, schedule: Q04DX003 (ip), vehicle: saline with Tween-80
[12] = dose: 6.25 mg/kg/injection, schedule: Q01DX009 (ip), vehicle: water
[13] = dose: 100.0 mg/kg/injection, schedule: Q04DX002 (ip), vehicle: Klucel (hydroxypropylcellulose) (HPC)
[14] = dose: 200.0 mg/kg/injection, schedule: Q04DX002 (ip), vehicle: Klucel (hydroxypropylcellulose) (HPC)
[15] = dose: 400.0 mg/kg/injection, schedule: Q04DX002 (ip), vehicle: Klucel (hydroxypropylcellulose) (HPC)
[16] = dose: 100.0 mg/kg/injection, schedule: Q01DX001 (ip), vehicle: saline
[17] = dose: 200.0 mg/kg/injection, schedule: Q01DX001 (ip), vehicle: saline
[18] = dose: 400.0 mg/kg/injection, schedule: Q01DX001 (ip), vehicle: saline
[19] = dose: 100.0 mg/kg/injection, schedule: Q04DX002 (ip), vehicle: saline with Tween-80
[20] = dose: 200.0 mg/kg/injection, schedule: Q04DX002 (ip), vehicle: saline with Tween-80
[21] = dose: 400.0 mg/kg/injection, schedule: Q04DX002 (ip), vehicle: saline with Tween-80

Measured: T/C

CCCNC(C)C(=O)c1ccccc1 (stereo not given)
inactive: dose: 12.5 mg/kg/injection, schedule: Q01DX009 (ip), vehicle: saline 93 % of control | dose: 25.0 mg/kg/injection, schedule: Q01DX009 (ip), vehicle: saline 97 % of control | dose: 50.0 mg/kg/injection, schedule: Q01DX009 (ip), vehicle: saline 108 % of control | [1] 86 % of control

C=CCc1cc(Nc2c3ccc(Cl)cc3nc3ccc(OC)cc23)cc(CN(CC)CC)c1O
inactive: dose: 50.0 mg/kg/injection, schedule: Q04DX002 (ip), vehicle: saline 106 % of control | [2] 98 % of control | [3] 98 % of control

CSc1ccc([N+](=O)[O-])cc1
inactive: [4] 104 % of control | [5] 100 % of control

O=C(O)C1CC(=O)N(Cc2ccccc2)C1 (stereo not given)
inactive: [6] 102 % of control | [7] 100 % of control | [8] 90 % of control | [9] 107 % of control | [10] 98 % of control | [11] 96 % of control

C/C(=C\c1ccccc1)C(=O)c1ccccc1
inactive: [12] 109 % of control | dose: 12.5 mg/kg/injection, schedule: Q01DX009 (ip), vehicle: water 107 % of control | dose: 25.0 mg/kg/injection, schedule: Q01DX009 (ip), vehicle: water 101 % of control and 91 % of control | dose: 50.0 mg/kg/injection, schedule: Q01DX009 (ip), vehicle: water 95 % of control and 112 % of control | dose: 100.0 mg/kg/injection, schedule: Q01DX009 (ip), vehicle: Klucel (hydroxypropylcellulose) (HPC) 93 % of control | dose: 100.0 mg/kg/injection, schedule: Q01DX009 (ip), vehicle: other 113 % of control | dose: 100.0 mg/kg/injection, schedule: Q01DX009 (ip), vehicle: water 101 % of control and 106 % of control | [13] 100 % of control | dose: 100.0 mg/kg/injection, schedule: Q04DX003 (ip), vehicle: other 101 % of control | dose: 200.0 mg/kg/injection, schedule: Q01DX009 (ip), vehicle: Klucel (hydroxypropylcellulose) (HPC) 98 % of control | dose: 200.0 mg/kg/injection, schedule: Q01DX009 (ip), vehicle: other 101 % of control | dose: 200.0 mg/kg/injection, schedule: Q01DX009 (ip), vehicle: water 104 % of control and 107 % of control | [14] 92 % of control | dose: 200.0 mg/kg/injection, schedule: Q04DX003 (ip), vehicle: other 101 % of control | dose: 400.0 mg/kg/injection, schedule: Q01DX009 (ip), vehicle: Klucel (hydroxypropylcellulose) (HPC) 105 % of control | dose: 400.0 mg/kg/injection, schedule: Q01DX009 (ip), vehicle: other 108 % of control | dose: 400.0 mg/kg/injection, schedule: Q01DX009 (ip), vehicle: water 106 % of control | [15] 95 % of control | dose: 400.0 mg/kg/injection, schedule: Q04DX003 (ip), vehicle: other 100 % of control

CC(C)(C)C(Br)C(Br)Br (stereo not given) (tested in a mixture with another compound)
inactive: dose: 50.0 mg/kg/injection, schedule: Q01DX009 (ip), vehicle: saline with Tween-80 101 % of control | [6] 97 % of control | [8] 89 % of control

CC1C(=O)OC2C1CCC1(C)C3(C)C(=O)C=CC213 (stereo not given)
inactive: dose: 75.0 mg/kg/injection, schedule: Q01DX001 (ip), vehicle: saline 97 % of control | dose: 150.0 mg/kg/injection, schedule: Q01DX001 (ip), vehicle: saline 106 % of control | dose: 300.0 mg/kg/injection, schedule: Q01DX001 (ip), vehicle: saline 95 % of control

C1=C(c2ccccc2)N(C2CCCC2)C(c2ccccc2)=CN1Cc1ccccc1
inactive: [13] 100 % of control | [14] 95 % of control | [15] 97 % of control

O=C(CO)NCO
inactive: [16] 103 % of control | [17] 101 % of control | [18] 101 % of control

Cc1ccc(CSc2ccc([N+](=O)[O-])cc2[N+](=O)[O-])cc1
inactive: dose: 100.0 mg/kg/injection, schedule: Q01DX001 (ip), vehicle: carboxymethylcellulose (CMC) 113 % of control | dose: 200.0 mg/kg/injection, schedule: Q01DX001 (ip), vehicle: carboxymethylcellulose (CMC) 98 % of control | dose: 400.0 mg/kg/injection, schedule: Q01DX001 (ip), vehicle: carboxymethylcellulose (CMC) 92 % of control

CCC(CC)COC(=O)CI
inactive: dose: 5.0 mg/kg/injection, schedule: Q01DX001 (ip), vehicle: saline 100 % of control | dose: 10.0 mg/kg/injection, schedule: Q01DX001 (ip), vehicle: saline 100 % of control | dose: 20.0 mg/kg/injection, schedule: Q01DX001 (ip), vehicle: saline 100 % of control | dose: 40.0 mg/kg/injection, schedule: Q01DX001 (ip), vehicle: saline 100 % of control | dose: 80.0 mg/kg/injection, schedule: Q01DX001 (ip), vehicle: saline 100 % of control

Cc1cnc(N/N=C/c2ccccc2)nc1-c1ccccc1O
inactive: [13] 103 % of control | [14] 100 % of control | [15] 92 % of control

Cc1ccc(S)c(C)c1
inactive: [4] 93 % of control | [5] 95 % of control

NS(=O)(=O)c1ccc(NC(=S)NC(=O)c2ccc(Cl)cc2Cl)cc1
inactive: [6] 89 % of control and 90 % of control | [19] 101 % of control and 92 % of control | [8] 96 % of control and 89 % of control | [20] 97 % of control and 90 % of control | [10] 93 % of control and 89 % of control | [21] 86 % of control and 92 % of control

CC(=O)OCC/[N+]([O-])=C\c1ncc([N+](=O)[O-])n1C
inactive: [2] 100 % of control | [3] 114 % of control | dose: 400.0 mg/kg/injection, schedule: Q04DX002 (ip), vehicle: saline 100 % of control

O=C(C[n+]1c(Cl)ccc2ccccc21)c1ccccc1
inactive: dose: 75.0 mg/kg/injection, schedule: Q01DX001 (ip), vehicle: other 94 % of control | dose: 150.0 mg/kg/injection, schedule: Q01DX001 (ip), vehicle: other 100 % of control

Nc1nc(N)c2cc(N3CCCC3c3ccc(Cl)c(Cl)c3)ccc2n1 (stereo not given)
inactive: dose: 1.56 mg/kg/injection, schedule: Q01DX009 (ip), vehicle: water 103 % of control | dose: 3.12 mg/kg/injection, schedule: Q01DX009 (ip), vehicle: water 110 % of control | [12] 98 % of control

CC1(CO)CC2C=CC1C2 (stereo not given)
inactive: [19] 99 % of control | [20] 99 % of control | [21] 99 % of control

COC(=O)C1C2CC(=O)C(C2)C1C(=O)OC (stereo not given)
inactive: [1] 96 % of control | [7] 98 % of control | dose: 100.0 mg/kg/injection, schedule: Q04DX003 (ip), vehicle: saline 100 % of control | dose: 200.0 mg/kg/injection, schedule: Q01DX009 (ip), vehicle: saline 105 % of control | [9] 86 % of control | dose: 200.0 mg/kg/injection, schedule: Q04DX003 (ip), vehicle: saline 100 % of control | dose: 400.0 mg/kg/injection, schedule: Q01DX009 (ip), vehicle: saline 99 % of control | [11] 91 % of control | dose: 400.0 mg/kg/injection, schedule: Q04DX003 (ip), vehicle: saline 96 % of control

CCOC(=O)CS(C)(=O)=O
inactive: [16] 98 % of control | [17] 93 % of control | [18] 94 % of control

CCN(CC)CCNc1ccccc1Cl
inactive: [16] 101 % of control | [17] 101 % of control

Cc1cccc(Cl)c1OCC(O)COc1c(C)cccc1Cl
inactive: [19] 92 % of control | [20] 95 % of control | [21] 95 % of control

COc1ccc(OC)c(NC(=S)NC(=O)c2ccccc2F)c1
inactive: [6] 94 % of control | [8] 86 % of control
